Experimental data taken from patent US20100144855A1, “APPLICATION OF SEDOISOPROSAN FOR PREPARATION OF MEDICINE FOR TREATMENT OF HUMAN HBeAg POSITIVE CHRONIC HEPATITIS B” (priority 2008, published 2010).

Assay: clinical trial, safety in HBeAg positive chronic hepatitis B patients
Format: in vivo, human
Conditions: for cases with adverse events: 16 cases
Text: The clinical trial protocol was designed according to the randomized, double-blind and controlled principle. The clinical efficacy and the safety of sedoisoprosan for therapy on human HBeAg positive chronic hepatitis B is defined according to the changes of vivo HBV-DNA level, ALT level, vital signs, blood routine indexes, blood biochemical indexes and thyroid function indexes before and after administration and the incidence of adverse events.
Patients enrolled in the clinical trials were randomly divided into four groups, i.e. negative control group (800 mg mannite), low dose group (200 mg sedoisoprosan with 600 mg mannite), median dose group (400 mg sedoisoprosan with 400 mg mannite) and high dose group (800 mg sedoisoprosan) respectively. Each patient was assigned with a CRF No. which was randomly generated by computer.
Baseline assessment was performed on the day of the first administration, which included medical examination, hematological examination, blood biochemical examination, thyroid function examination, ALT examination and quantitative detection of HBV-DNA. The medical examination included the examination of stature, avoirdupois, blood pressure and pulse rate. The hematological examination included the leucocyte, neutrophil, erythrocyte, platelet and haemoglobin counts, and the prothrombin time. The blood biochemical examination included the examination of serum potassium, sodium, GOT, total bilirubin, AKP, total protein, albumin, total cholesterol, triglyceride, urea nitrogen, creatinine and glucose.
The patients were followed up at the 1st, 2nd, 4th, 8th and 12th week of the treatment. The blood biochemical examination and the quantitative detection of HBV-DNA was performed at the 2nd, 4th, 8th and 12th week of the treatment, and the adverse events were recorded at the same time. The thyroid function examination was performed at the 12th week of the treatment.
The safety indexes included vital signs, clinical laboratory parameters, adverse events, important adverse events, serious adverse events and the early termination cases. The safety analysis should be performed on patients who have received at least once administration and were evaluated after the administration.
The detection of vital signs and laboratory parameters and the recording for adverse events was performed at baseline and at the 1st, 2nd, 4th, 8th and 12th week of the treatment. The vital signs and laboratory parameters were evaluated by the changes thereof before and after the treatment. The incidence of adverse events was figured by the proportion of patients having adverse events during the treatment, and the evaluation of adverse events included the kinds, grades and the relationship to the drugs. The adverse events were recorded by descriptive statistics, and comparison of the incidence thereof between the four groups was performed by Fisher probabilistic test.

[1] = high dose group, 800 mg, the 1st week
[2] = high dose group, 800 mg, the 2nd week
[3] = high dose group, 800 mg, the 4th week
[4] = high dose group, 800 mg, the 8th week
[5] = high dose group, 800 mg, the 12th week
[6] = low dose group, 200 mg, the 1st week
[7] = low dose group, 200 mg, the 2nd week
[8] = low dose group, 200 mg, the 4th week
[9] = low dose group, 200 mg, the 8th week
[10] = low dose group, 200 mg, the 12th week
[11] = median dose group, 400 mg, the 1st week
[12] = median dose group, 400 mg, the 2nd week
[13] = median dose group, 400 mg, the 4th week
[14] = median dose group, 400 mg, the 8th week
[15] = median dose group, 400 mg, the 12th week
[16] = patient CRF 3, high dose group (800 mg)
[17] = patient CRF 7, low dose group (200 mg)
[18] = patient CRF 10, low dose group (200 mg)
[19] = patient CRF 14, low dose group (200 mg)
[20] = patient CRF 15, median dose group (400 mg)
[21] = patient CRF 17, low dose group (200 mg)
[22] = patient CRF 19, high dose group (800 mg)
[23] = patient CRF 20, median dose group (400 mg)
[24] = patient CRF20, median dose group, after 8 weeks' treatment
[25] = patient CRF 32, median dose group (400 mg)
[26] = patient CRF 60, median dose group (400 mg)

CC1(C)OC2C3COC(CO)(O3)C(O)C2O1 (centres unmarked) [sedoisoprosan, isopropylidene sedoheptulosan]
safety of the highest dose (vital signs, blood routine and blood biochemical indexes) (800 mg): safe
changes in total bilirubin levels before and after the treatment (12 weeks' treatment): significant changes in total bilirubin levels before and after the treatment, but such changes were still within the normal range
changes in vital signs, blood routine indexes and blood biochemical indexes, excluding the total bilirubin levels, before and after the treatment (12 weeks' treatment): No significant changes
important adverse events related to the study drug and needing treatment (CRF16, CRF19 and CRF20): 3 cases
central nervous system abnormalities among adverse events (all groups): No central nervous system abnormalities were found
incidence of adverse events (clinical trials, 200-800 mg): low
patients who quitted the clinical trials for adverse events (high dose group): No patients
cases with adverse events (high dose group (800 mg)): two
Avoirdupois [1]: 61.34 ± 9.96 kg
Diastolic Pressure [1]: 75.31 ± 7.26 mmHg
Pulse rate [1]: 76.00 ± 5.81 times/min
Respiratory frequency [1]: 18.00 ± 1.86 times/min
Systolic Pressure [1]: 115.56 ± 13.17 mmHg
Avoirdupois [2]: 61.41 ± 9.89 kg
Diastolic Pressure [2]: 75.31 ± 6.14 mmHg
Pulse rate [2]: 75.81 ± 5.27 times/min
Respiratory frequency [2]: 18.38 ± 1.78 times/min
Systolic Pressure [2]: 112.81 ± 12.55 mmHg
Avoirdupois [3]: 61.53 ± 9.81 kg
Diastolic Pressure [3]: 75.44 ± 6.03 mmHg
Pulse rate [3]: 76.38 ± 5.95 times/min
Respiratory frequency [3]: 17.94 ± 1.84 times/min
Systolic Pressure [3]: 112.69 ± 11.69 mmHg
Avoirdupois [4]: 62.06 ± 9.20 kg
Diastolic Pressure [4]: 77.56 ± 5.05 mmHg
Pulse rate [4]: 75.75 ± 5.27 times/min
Respiratory frequency [4]: 18.75 ± 1.24 times/min
Systolic Pressure [4]: 115.19 ± 10.91 mmHg
Avoirdupois [5]: 62.67 ± 9.45 kg
Diastolic Pressure [5]: 76.73 ± 5.16 mmHg
Pulse rate [5]: 75.73 ± 4.85 times/min
Respiratory frequency [5]: 19.13 ± 1.13 times/min
Systolic Pressure [5]: 115.20 ± 11.55 mmHg
cases with adverse events (low dose group (200 mg)): four
Avoirdupois [6]: 61.72 ± 10.47 kg
Diastolic Pressure [6]: 72.38 ± 5.14 mmHg
Pulse rate [6]: 76.06 ± 5.95 times/min
Respiratory frequency [6]: 18.63 ± 1.31 times/min
Systolic Pressure [6]: 116.63 ± 8.79 mmHg
Avoirdupois [7]: 61.59 ± 10.80 kg
Diastolic Pressure [7]: 73.38 ± 6.01 mmHg
Pulse rate [7]: 74.13 ± 4.70 times/min
Respiratory frequency [7]: 18.75 ± 1.57 times/min
Systolic Pressure [7]: 116.00 ± 10.67 mmHg
Avoirdupois [8]: 61.57 ± 10.72 kg
Diastolic Pressure [8]: 74.87 ± 6.55 mmHg
Pulse rate [8]: 75.13 ± 4.50 times/min
Respiratory frequency [8]: 18.60 ± 1.30 times/min
Systolic Pressure [8]: 113.93 ± 9.95 mmHg
Avoirdupois [9]: 62.86 ± 11.14 kg
Diastolic Pressure [9]: 73.29 ± 5.82 mmHg
Pulse rate [9]: 73.57 ± 5.65 times/min
Respiratory frequency [9]: 18.64 ± 1.45 times/min
Systolic Pressure [9]: 115.71 ± 9.75 mmHg
Avoirdupois [10]: 63.58 ± 12.09 kg
Diastolic Pressure [10]: 74.54 ± 4.94 mmHg
Pulse rate [10]: 71.54 ± 4.16 times/min
Respiratory frequency [10]: 19.15 ± 1.28 times/min
Systolic Pressure [10]: 115.85 ± 10.79 mmHg
cases with adverse events (median dose group (400 mg)): four
Avoirdupois [11]: 62.67 ± 12.11 kg
Diastolic Pressure [11]: 71.53 ± 7.53 mmHg
Pulse rate [11]: 77.60 ± 3.83 times/min
Respiratory frequency [11]: 19.13 ± 3.76 times/min
Systolic Pressure [11]: 114.33 ± 11.00 mmHg
Avoirdupois [12]: 62.30 ± 12.09 kg
Diastolic Pressure [12]: 71.73 ± 6.24 mmHg
Pulse rate [12]: 75.47 ± 5.36 times/min
Respiratory frequency [12]: 18.53 ± 3.54 times/min
Systolic Pressure [12]: 114.67 ± 9.85 mmHg
Avoirdupois [13]: 61.73 ± 9.86 kg
Diastolic Pressure [13]: 73.13 ± 5.69 mmHg
Pulse rate [13]: 76.40 ± 3.81 times/min
Respiratory frequency [13]: 18.40 ± 4.03 times/min
Systolic Pressure [13]: 115.80 ± 10.25 mmHg
Avoirdupois [14]: 62.70 ± 11.76 kg
Diastolic Pressure [14]: 73.73 ± 4.51 mmHg
Pulse rate [14]: 75.40 ± 3.25 times/min
Respiratory frequency [14]: 19.27 ± 2.34 times/min
Systolic Pressure [14]: 110.87 ± 7.70 mmHg
Avoirdupois [15]: 59.88 ± 8.18 kg
Diastolic Pressure [15]: 74.77 ± 5.15 mmHg
Pulse rate [15]: 78.00 ± 4.53 times/min
Respiratory frequency [15]: 19.31 ± 2.66 times/min
Systolic Pressure [15]: 115.69 ± 9.67 mmHg
reason for early termination (one patient, low dose group, after 6 weeks' treatment): progressive increasing ALT level
Adverse event Liver Dysfunction: Outcome [16]: Remission Without Sequela
Adverse event Liver Dysfunction: Relation to the study drug [16]: Unrelated
Adverse event Liver Dysfunction: Severity [16]: Light
Adverse event Urinary Tract Infection: Outcome [17]: Remission Without Sequela
Adverse event Urinary Tract Infection: Relation to the study drug [17]: Unrelated
Adverse event Urinary Tract Infection: Severity [17]: Light
Adverse event Progressive Increase in ALT Level: Outcome [18]: Reexamination of Liver Function After A Week
Adverse event Progressive Increase in ALT Level: Relation to the study drug [18]: Maybe Unrelated
Adverse event Progressive Increase in ALT Level: Severity [18]: Middle
Adverse event Alopecia: Outcome [19]: No Change
Adverse event Alopecia: Relation to the study drug [19]: Maybe Related
Adverse event Alopecia: Severity [19]: Light
Adverse event Gingival Bleeding: Outcome [19]: Remission Without Sequela
Adverse event Gingival Bleeding: Relation to the study drug [19]: Maybe Unrelated
Adverse event Gingival Bleeding: Severity [19]: Light
Adverse event Liver Dysfunction: Outcome [19]: Remission Without Sequela
Adverse event Liver Dysfunction: Relation to the study drug [19]: Maybe Unrelated
Adverse event Liver Dysfunction: Severity [19]: Light
Adverse event Pharyngoxerosis: Outcome [19]: Remission Without Sequela
Adverse event Pharyngoxerosis: Relation to the study drug [19]: Unrelated
Adverse event Pharyngoxerosis: Severity [19]: Light
Adverse event Alopecia: Outcome [20]: No Change
Adverse event Alopecia: Relation to the study drug [20]: Maybe Related
Adverse event Alopecia: Severity [20]: Light
Adverse event Emesis: Outcome [20]: Remission Without Sequela
Adverse event Emesis: Relation to the study drug [20]: Maybe Unrelated
Adverse event Emesis: Severity [20]: Light
Adverse event Gingival Bleeding: Outcome [20]: Remission Without Sequela
Adverse event Gingival Bleeding: Relation to the study drug [20]: Maybe Unrelated
Adverse event Gingival Bleeding: Severity [20]: Light
Adverse event Increase in ALT Level: Outcome [20]: Remission Without Sequela
Adverse event Increase in ALT Level: Relation to the study drug [20]: Maybe Unrelated
Adverse event Increase in ALT Level: Severity [20]: Light
Adverse event Alopecia: Outcome [21]: No Change
Adverse event Alopecia: Relation to the study drug [21]: Maybe Related
Adverse event Alopecia: Severity [21]: Light
Adverse event ALT 74 U/L, TBil 133.1: Outcome [22]: Remission Without Sequela
Adverse event ALT 74 U/L, TBil 133.1: Relation to the study drug [22]: Maybe Related
Adverse event ALT 74 U/L, TBil 133.1: Severity [22]: Middle
Adverse event Aggravated Muscle Ache: Outcome [22]: Remission Without Sequela
Adverse event Aggravated Muscle Ache: Relation to the study drug [22]: Maybe Related
Adverse event Aggravated Muscle Ache: Severity [22]: Middle
Adverse event Costalgia And Notalgia: Outcome [22]: Remission Without Sequela
Adverse event Costalgia And Notalgia: Relation to the study drug [22]: Maybe Related
Adverse event Costalgia And Notalgia: Severity [22]: Middle
Adverse event Generalized Muscle Ache: Outcome [22]: Remission Without Sequela
Adverse event Generalized Muscle Ache: Relation to the study drug [22]: Maybe Related
Adverse event Generalized Muscle Ache: Severity [22]: Light
Adverse event Acid Regurgitation: Outcome [23]: Remission Without Sequela
Adverse event Acid Regurgitation: Relation to the study drug [23]: Maybe Related
Adverse event Acid Regurgitation: Severity [23]: Light
Adverse event Aggravated Digestive Symptom: Outcome [23]: Remission Without Sequela
Adverse event Aggravated Digestive Symptom: Relation to the study drug [23]: Related
Adverse event Aggravated Digestive Symptom: Severity [23]: Middle
Adverse event Dark Urine: Outcome [23]: Remission Without Sequela
Adverse event Dark Urine: Relation to the study drug [23]: Related
Adverse event Dark Urine: Severity [23]: Middle
Adverse event Epigastric Discomfort: Outcome [23]: Remission Without Sequela
Adverse event Epigastric Discomfort: Relation to the study drug [23]: Related
Adverse event Epigastric Discomfort: Severity [23]: Middle
Adverse event Hypodynamia: Outcome [23]: Remission Without Sequela
Adverse event Hypodynamia: Relation to the study drug [23]: Related
Adverse event Hypodynamia: Severity [23]: Middle
Adverse event Icterus: Outcome [23]: Remission Without Sequela
Adverse event Icterus: Relation to the study drug [23]: Related
Adverse event Icterus: Severity [23]: Middle
ALT level at early termination [24]: 343 U/L
AST level at early termination [24]: 517 U/L
TBil level at early termination [24]: 68.1 µmol/L
Adverse event Toothache And Periodontitis: Outcome [25]: Remission Without Sequela
Adverse event Toothache And Periodontitis: Relation to the study drug [25]: Unrelated
Adverse event Toothache And Periodontitis: Severity [25]: Middle
Adverse event Upper Respiratory Tract Infection: Outcome [26]: Remission Without Sequela
Adverse event Upper Respiratory Tract Infection: Relation to the study drug [26]: Unrelated
Adverse event Upper Respiratory Tract Infection: Severity [26]: Middle
